In patent publication US7419780B2, “Methods and assays for screening protein targets” (The Trustees of Columbia University in the City of New York, priority 2000, dated 2008):

Experiments:
Assay type in all cases: cell-based, S. cerevisiae
Conditions in all cases: 1 uM small molecule, difference to activity without small molecule, average of two trials
[1] = biological target: T1, LexA eDHFR / B42 gly6rGR2 (UniProt P06536+P0ABQ4, C656G/F620S); assay: β-galactosidase activity assay, strain V375Y
T1 construct: rat Glucocorticoid Receptor (aa 524-795) with point mutations; expressed in transfected cells; host or cells: S. cerevisiae FY250
T1 sequence (P0ABQ4 1-159): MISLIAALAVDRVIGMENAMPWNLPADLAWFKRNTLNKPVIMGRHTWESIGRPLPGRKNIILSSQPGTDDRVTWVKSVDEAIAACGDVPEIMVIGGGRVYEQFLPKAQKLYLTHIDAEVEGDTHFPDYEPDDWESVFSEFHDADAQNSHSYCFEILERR
T1 sequence (P06536 524-795 F620S/C656G limits assumed): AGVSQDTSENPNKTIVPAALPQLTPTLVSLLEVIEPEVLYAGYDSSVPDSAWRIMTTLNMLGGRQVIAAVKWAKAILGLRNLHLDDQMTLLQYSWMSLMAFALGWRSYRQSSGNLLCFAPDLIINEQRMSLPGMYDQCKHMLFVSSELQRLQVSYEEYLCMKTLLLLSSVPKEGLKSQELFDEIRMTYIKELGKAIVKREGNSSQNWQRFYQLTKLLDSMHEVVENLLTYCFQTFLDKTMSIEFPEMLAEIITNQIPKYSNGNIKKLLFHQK
Description: (§1) Table III explains the components of each strain. Each strain was constructed from the parent yeast strain FY250 and also contains the pMW106 plasmid, which has the LacZ reporter gene that is turned on only in when the LexA DNA binding domain and the B42 activation are brought in tot he vicinity of each other. We use several different strains because we use DHFR from two different species, mDHFR is from murine, while eDHFR is from E. coli. We are asl oable to switch the small moleculebinding domains. For example, the strain containing LexA-eDHFR with B42-rGH2 is a different strain and behaves differently from the strain containing LexA-rGR2 with B42-eDHFR. We also put in short 6 amino acid linkers between the two domains of our protein chimeras and thus these are different strain as well.
(§2) The results in Table IV are averages of two separate trials. Each strain was examined with small molecules and without small molecules. The absolute activity is given as the β-galactisidase activity […]. The average β-galactosidse activity for a strain without small molecule (i.e. the negative control) was about 100 β-galactosidase units.

[2] = biological target: T2, LexA (GSG)2eDHFR / B42 gly6rGR2 (UniProt P06536+P0ABQ4, C656G/F620S); assay: β-galactosidase activity assay, strain V499Y
T2 construct: rat Glucocorticoid Receptor (aa 524-795) with point mutations; expressed in transfected cells; host or cells: S. cerevisiae FY250
T2 sequence (P0ABQ4 1-159): T1 sequence (P0ABQ4 1-159)
T2 sequence (P06536 524-795 F620S/C656G limits assumed): T1 sequence (P06536 524-795 F620S/C656G limits assumed)
Description: as §1, §2

[3] = biological target: T3, LexA rGR2 / B42 (GSG)2eDHFR (UniProt P06536+P0ABQ4, C656G/F620S); assay: β-galactosidase activity assay, strain V509Y
T3 construct: expressed in transfected cells; host or cells: S. cerevisiae FY250 with pMW106 lacZ reporter
T3 sequence (P06536 524-795 F620S/C656G limits assumed): T1 sequence (P06536 524-795 F620S/C656G limits assumed)
T3 sequence (P0ABQ4 1-159): T1 sequence (P0ABQ4 1-159)
Description: as §1, §2

LexA rGR2 / B42 mDHFR = biological target: T4, LexA rGR2 / B42 mDHFR (UniProt P00375+P06536, C656G/F620S); assay: β-galactosidase activity assay, strain V507Y
T4 construct: rat Glucocorticoid Receptor (aa 524-795) with point mutations; expressed in transfected cells; host or cells: S. cerevisiae FY250
T4 sequence (P06536 524-795 F620S/C656G limits assumed): T1 sequence (P06536 524-795 F620S/C656G limits assumed)
T4 sequence (P00375 1-187): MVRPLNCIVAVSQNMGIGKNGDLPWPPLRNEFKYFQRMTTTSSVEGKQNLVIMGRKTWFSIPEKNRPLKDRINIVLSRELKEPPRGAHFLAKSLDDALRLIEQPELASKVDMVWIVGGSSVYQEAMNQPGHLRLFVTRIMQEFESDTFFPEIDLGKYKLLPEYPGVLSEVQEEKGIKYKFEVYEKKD
Description: as §1, §2

[4] = biological target: T5, LexA mDHFR / B42 (GSG)rGR2 (UniProt P00375+P06536, C656G/F620S); assay: β-galactosidase activity assay, strain V497Y
T5 construct: rat Glucocorticoid Receptor (aa 524-795) with point mutations; expressed in transfected cells; host or cells: S. cerevisiae FY250
T5 sequence (P00375 1-187): T4 sequence (P00375 1-187)
T5 sequence (P06536 524-795 F620S/C656G limits assumed): T1 sequence (P06536 524-795 F620S/C656G limits assumed)
Description: as §1, §2

[5] = biological target: T6, LexA (GSG)2eDHFR / B42 rGR2 (UniProt P06536+P0ABQ4, C656G/F620S); assay: β-galactosidase activity assay, strain V498Y
T6 construct: rat Glucocorticoid Receptor (aa 524-795) with point mutations; expressed in transfected cells; host or cells: S. cerevisiae FY250
T6 sequence (P0ABQ4 1-159): T1 sequence (P0ABQ4 1-159)
T6 sequence (P06536 524-795 F620S/C656G limits assumed): T1 sequence (P06536 524-795 F620S/C656G limits assumed)
Description: as §1, §2

[6] = biological target: T7, LexA (GSG)2mDHFR / B42 (GSG)rGR2 (UniProt P00375+P06536, C656G/F620S); assay: β-galactosidase activity assay, strain V504Y
T7 construct: rat Glucocorticoid Receptor (aa 524-795) with point mutations; expressed in transfected cells; host or cells: S. cerevisiae FY250
T7 sequence (P00375 1-187): T4 sequence (P00375 1-187)
T7 sequence (P06536 524-795 F620S/C656G limits assumed): T1 sequence (P06536 524-795 F620S/C656G limits assumed)
Description: as §1, §2

[7] = biological target: T8, LexA eDHFR / B42 (GSG)rGR2 (UniProt P06536+P0ABQ4, C656G/F620S); assay: β-galactosidase activity assay, strain V494Y
T8 construct: rat Glucocorticoid Receptor (aa 524-795) with point mutations; expressed in transfected cells; host or cells: S. cerevisiae FY250
T8 sequence (P0ABQ4 1-159): T1 sequence (P0ABQ4 1-159)
T8 sequence (P06536 524-795 F620S/C656G limits assumed): T1 sequence (P06536 524-795 F620S/C656G limits assumed)
Description: as §1, §2

[8] = biological target: T9, LexA rGR2 / B42 (GSG)2mDHFR (UniProt P00375+P06536, C656G/F620S); assay: β-galactosidase activity assay, strain V511Y
T9 construct: expressed in transfected cells; host or cells: S. cerevisiae FY250 with pMW106 lacZ reporter
T9 sequence (P06536 524-795 F620S/C656G limits assumed): T1 sequence (P06536 524-795 F620S/C656G limits assumed)
T9 sequence (P00375 1-187): T4 sequence (P00375 1-187)
Description: as §1, §2

LexA mDHFR / B42 rGR2 = biological target: T10, LexA mDHFR / B42 rGR2 (UniProt P00375+P06536, C656G/F620S); assay: β-galactosidase activity assay, strain V495Y
T10 construct: rat Glucocorticoid Receptor (aa 524-795) with point mutations; expressed in transfected cells; host or cells: S. cerevisiae FY250
T10 sequence (P00375 1-187): T4 sequence (P00375 1-187)
T10 sequence (P06536 524-795 F620S/C656G limits assumed): T1 sequence (P06536 524-795 F620S/C656G limits assumed)
Description: as §1, §2

With `C[C@@H]1C[C@H]2C3CCC4=CC(=O)C=C[C@]4(C)[C@@]3(F)[C@@H](O)C[C@]2(C)[C@@]1(O)C(=O)NCCSCc1cccc(CSCC[C@H](NC(=O)c2ccc(N(C)Cc3cnc4nc(N)nc(N)c4n3)cc2)C(=O)O)c1` (stereo partly shown) [DM1] the B-gal activity [1] was 4978 β-galactosidase units, the B-gal activity [2] was 4368 β-galactosidase units and the B-gal activity [3] was 307 β-galactosidase units. The B-gal activity (LexA rGR2 / B42 mDHFR) was −7 β-galactosidase units, the B-gal activity [4] was −8 β-galactosidase units and the B-gal activity [5] was 4735 β-galactosidase units. For the same compound, the B-gal activity [6] was 12 β-galactosidase units, the B-gal activity [7] was 9976 β-galactosidase units and the B-gal activity [8] was −113 β-galactosidase units. For the same compound, the B-gal activity (LexA mDHFR / B42 rGR2) was 15 β-galactosidase units.
